Experimental data taken from ChEMBL document CHEMBL1201862, “PubChem BioAssay data set” (2004).
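Values below derive from 48-hour exposures of cells grown in 96-well plates, with endpoints linearly interpolated between the two concentrations bracketing the appropriate inhibition level. Here, GI50 denotes the concentration required for 50% inhibition of growth.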 The source made the active and inactive calls. Cut-off read from the data, not from the text of the source: active = GI50 up to about 1.1 µM and inactive = higher.

How the values were obtained:
Test in all cases: inhibition of tumour cell growth, NCI panel, 48 h
[1] = test system: NCI-H226
[2] = test system: OVCAR-4
[3] = test system: SNB-19
[4] = test system: LOX IMVI
[5] = test system: UACC-257
[6] = test system: OVCAR-3
[7] = test system: SK-OV-3
[8] = test system: PC-3
[9] = test system: Hs-578T
[10] = test system: MDA-N
[11] = test system: NCI-H460
[12] = test system: NCI-H23
[13] = test system: MOLT-4
[14] = test system: Malme-3M
[15] = test system: OVCAR-8
[16] = test system: RXF 393
[17] = test system: KM12
[18] = test system: HCT-15
[19] = test system: U-251
[20] = test system: MDA-MB-435

SMILES	GI50 [1]	GI50 [2]	GI50 [3]	GI50 [4]	GI50 [5]	GI50 [6]	GI50 [7]	GI50 [8]	GI50 [9]	GI50 [10]	GI50 [11]	GI50 [12]	GI50 [13]	GI50 [14]	GI50 [15]	GI50 [16]	GI50 [17]	GI50 [18]	GI50 [19]	GI50 [20]
CCN(CC)C(=O)COc1cc2c(O)c3c(O)c(C)c4c(c13)C(=O)C(C)(OC=CC(OC)C(C)C(OC(C)=O)C(C)C(O)C(C)C(O)C(C)C=CC=C(C)C(=O)N2)O4 (centres undefined)	> 100 µM (inactive)	> 100 µM (inactive)	> 100 µM (inactive)	> 100 µM (inactive)	> 100 µM (inactive)	> 100 µM (inactive)	> 100 µM (inactive)	> 100 µM (inactive)	> 100 µM (inactive)	> 100 µM (inactive)	> 100 µM (inactive)	> 100 µM (inactive)	> 100 µM (inactive)	> 100 µM (inactive)	> 100 µM (inactive)	> 100 µM (inactive)	> 100 µM (inactive)	> 100 µM	> 100 µM (inactive)	–
COc1ccc2c(c1OC)C(=O)O[C@@H]2[C@H]1c2cc3c(cc2CCN1C)OCO3	> 100 µM (inactive)	> 100 µM (inactive)	> 100 µM (inactive)	> 100 µM (inactive)	> 100 µM (inactive)	> 100 µM (inactive)	> 100 µM (inactive)	> 100 µM (inactive)	> 100 µM (inactive)	> 100 µM (inactive)	> 100 µM (inactive)	> 100 µM (inactive)	> 100 µM (inactive)	–	> 100 µM (inactive)	–	> 100 µM (inactive)	> 100 µM	> 100 µM (inactive)	> 100 µM (inactive)
CCOc1cc2c(cc1O)C(N)C[C@@H]1[C@@H]2CC[C@]2(C)[C@@H](O)CC[C@@H]12 (some centres undefined)	92.7 µM (inactive)	30.8 µM (inactive)	46.7 µM (inactive)	34.2 µM (inactive)	38.6 µM (inactive)	–	–	34.4 µM (inactive)	54.7 µM (inactive)	23.4 µM (inactive)	37.6 µM (inactive)	49.5 µM (inactive)	33.3 µM (inactive)	–	83.2 µM (inactive)	56.5 µM (inactive)	43.7 µM (inactive)	45.7 µM	37.9 µM (inactive)	–
O=C(Cn1c(C(=O)/C=C/c2cccs2)nc2ccccc21)c1ccc(Cl)cc1	53.8 µM (inactive)	14.6 µM (inactive)	25.5 µM (inactive)	13.9 µM (inactive)	17.9 µM (inactive)	15.5 µM (inactive)	32.9 µM (inactive)	–	12.8 µM (inactive)	21.1 µM (inactive)	10.5 µM (inactive)	14.7 µM (inactive)	–	13.6 µM (inactive)	–	29.2 µM (inactive)	11.1 µM (inactive)	21.5 µM	14.4 µM (inactive)	12.7 µM (inactive)
Cn1ccc(C(=O)N2CCSC2=S)c(OCc2ccccc2)c1=O	> 100 µM (inactive)	> 100 µM (inactive)	> 100 µM (inactive)	> 100 µM (inactive)	> 100 µM (inactive)	–	–	> 100 µM (inactive)	> 100 µM (inactive)	> 100 µM (inactive)	> 100 µM (inactive)	> 100 µM (inactive)	–	87.7 µM (inactive)	> 100 µM (inactive)	–	> 100 µM (inactive)	> 100 µM	> 100 µM (inactive)	> 100 µM (inactive)
O=C(NO)c1ccc(OCc2cccc(Cl)c2)cc1	11.9 µM (inactive)	8.95 µM (inactive)	24.5 µM (inactive)	5.07 µM (inactive)	13.6 µM (inactive)	4.55 µM (inactive)	8.45 µM (inactive)	6.64 µM (inactive)	16.2 µM (inactive)	10.1 µM (inactive)	4.58 µM (inactive)	5.3 µM (inactive)	2.62 µM (inactive)	–	3.01 µM (inactive)	10.2 µM (inactive)	11.9 µM (inactive)	4.57 µM	11.6 µM (inactive)	6.67 µM (inactive)
C=Cc1cc(OC)c2c(c1)c(=O)oc1c2cc(OC)c2c(O)ccc(C3OC(C)C(O)C(C)(O)C3O)c21 (centres undefined)	–	0.0271 µM (active)	0.0372 µM (active)	0.0225 µM (active)	–	0.0548 µM (active)	0.0445 µM (active)	0.000638 µM (active)	0.00295 µM (active)	0.00171 µM (active)	0.0225 µM (active)	0.0237 µM (active)	0.0225 µM (active)	0.0764 µM (active)	0.025 µM (active)	0.0225 µM (active)	–	0.0489 µM	0.0296 µM (active)	0.00163 µM (active)
CC1=C(C#N)S(=O)(=O)c2c(oc(C)c2C)N1	> 100 µM (inactive)	> 100 µM (inactive)	> 100 µM (inactive)	> 100 µM (inactive)	> 100 µM (inactive)	> 100 µM (inactive)	> 100 µM (inactive)	> 100 µM (inactive)	> 100 µM (inactive)	> 100 µM (inactive)	> 100 µM (inactive)	> 100 µM (inactive)	> 100 µM (inactive)	> 100 µM (inactive)	> 100 µM (inactive)	–	> 100 µM (inactive)	> 100 µM	> 100 µM (inactive)	> 100 µM (inactive)
O=C(NCCC(F)(F)C(F)(F)C(F)(F)C(F)(F)F)NC1OC(CO)C(O)C(O)C1O (centres undefined)	–	> 100 µM (inactive)	> 100 µM (inactive)	> 100 µM (inactive)	> 100 µM (inactive)	> 100 µM (inactive)	> 100 µM (inactive)	> 100 µM (inactive)	> 100 µM (inactive)	> 100 µM (inactive)	> 100 µM (inactive)	> 100 µM (inactive)	> 100 µM (inactive)	> 100 µM (inactive)	–	> 100 µM (inactive)	> 100 µM (inactive)	> 100 µM	> 100 µM (inactive)	> 100 µM (inactive)
CCCCCCCCCCOc1ccc(/N=N/c2nnc(-c3ccc(OCCCCC)cc3)s2)cc1	–	> 100 µM (inactive)	> 100 µM (inactive)	> 100 µM (inactive)	49.9 µM (inactive)	97.3 µM (inactive)	> 100 µM (inactive)	> 100 µM (inactive)	> 100 µM (inactive)	> 100 µM (inactive)	> 100 µM (inactive)	> 100 µM (inactive)	> 100 µM (inactive)	> 100 µM (inactive)	> 100 µM (inactive)	65 µM (inactive)	62.4 µM (inactive)	> 100 µM	> 100 µM (inactive)	34.5 µM (inactive)
COC(=O)c1cc(/C=C2\Cc3cc4c(cc3C2=O)CCC4)cc2c1CCC2	> 100 µM (inactive)	41.3 µM (inactive)	> 100 µM (inactive)	> 100 µM (inactive)	> 100 µM (inactive)	> 100 µM (inactive)	> 100 µM (inactive)	> 100 µM (inactive)	> 100 µM (inactive)	> 100 µM (inactive)	> 100 µM (inactive)	> 100 µM (inactive)	> 100 µM (inactive)	> 100 µM (inactive)	> 100 µM (inactive)	–	> 100 µM (inactive)	> 100 µM	> 100 µM (inactive)	> 100 µM (inactive)
c1cncc(C(Nc2cccc3cccnc23)Nc2cccc3cccnc23)c1	–	–	> 100 µM (inactive)	> 100 µM (inactive)	> 100 µM (inactive)	> 100 µM (inactive)	> 100 µM (inactive)	> 100 µM (inactive)	> 100 µM (inactive)	> 100 µM (inactive)	> 100 µM (inactive)	> 100 µM (inactive)	–	–	> 100 µM (inactive)	77.3 µM (inactive)	> 100 µM (inactive)	> 100 µM	> 100 µM (inactive)	> 100 µM (inactive)
CCCCOC(=O)NC(c1ccccc1)C(O)C(=O)OC1C[C@@]2(O)C(OC(=O)c3ccccc3)C3[C@](C)(C(=O)[C@H](OC(C)=O)C(=C1C)C2(C)C)[C@@H](O)C[C@H]1OC[C@@]31OC(C)=O (some centres undefined)	–	2.92 µM (inactive)	0.0361 µM (active)	0.00427 µM (active)	–	0.00906 µM (active)	0.0205 µM (active)	0.0171 µM (active)	0.00191 µM (active)	0.00176 µM (active)	0.002 µM (active)	0.0139 µM (active)	0.0407 µM (active)	–	0.0117 µM (active)	0.0156 µM (active)	0.0031 µM (active)	0.145 µM	0.00807 µM (active)	0.00224 µM (active)
CCOC(=O)c1cc(=O)c2ccnc3c2n1CCS3	> 100 µM (inactive)	–	50.2 µM (inactive)	57.4 µM (inactive)	51.6 µM (inactive)	61.7 µM (inactive)	> 100 µM (inactive)	> 100 µM (inactive)	> 100 µM (inactive)	> 100 µM (inactive)	> 100 µM (inactive)	32.1 µM (inactive)	> 100 µM (inactive)	–	> 100 µM (inactive)	–	40.9 µM (inactive)	> 100 µM	43.9 µM (inactive)	> 100 µM (inactive)
O=C(CCc1ccc(O)c(O)c1)NCCc1cc(O)cc(OCc2ccccc2)c1	58.7 µM (inactive)	–	6.22 µM (inactive)	26.3 µM (inactive)	> 100 µM (inactive)	35.8 µM (inactive)	28.7 µM (inactive)	31.9 µM (inactive)	45.9 µM (inactive)	19.5 µM (inactive)	22.2 µM (inactive)	21.6 µM (inactive)	14 µM (inactive)	–	–	83.4 µM (inactive)	29.7 µM (inactive)	11.6 µM	26.6 µM (inactive)	27.2 µM (inactive)
